These are literature values, as cited in publication PMC11920646 (Frontiers in Pharmacology, 2025).

The subject of series [1] is IL-6 release in A549 cells. Set-up: method as in Hu et al., 2011. The settings on record: dagrocorat study ref Hu et al., 2011; cited from earlier work.
Series [2] deals with IFN-γ release in human whole blood. Set-up: method as in Hu et al., 2011. The settings on record: at concentrations each of 100–1000 nM ref Hu et al., 2011; cited from earlier work.
The conditions of series [3]: humans ref Ripa et al., 2018; cited from earlier work.

For the compound `Cc1ncccc1NC(=O)c1ccc2c(c1)CC[C@@H]1C[C@@](O)(C(F)(F)F)CC[C@@]21Cc1ccccc1` [dagrocorat], the “inhibition of IL-6 release in A549 cells” value in series [1] is reported as 78%. Moreover, the “inhibition of IFN-γ release in human whole blood” value in series [2] is 60–70%.
What is called t½ is how long it takes for the measured level to halve. `CC(C)[C@H](NC(=O)C(C)(F)F)[C@H](Oc1ccc2c(cnn2-c2ccc(=O)n(C)c2)c1)c1ccccc1` [mizacorat]: the t½ in series [3] is given as about 5 h.
